Assay results reported in patent US11214803B2, “Modulators of YAP1 expression” (Ionis Pharmaceuticals, Inc., priority 2019, dated 2022).
Strand notation (5' to 3'): a small letter for the sugar, then the base; units joined by * are phosphorothioate-linked, units joined directly phosphodiester-linked; [ ] holds rarer units or linkages, { } end groups; capitals alone tell only the bases. e = 2'-O-(2-methoxyethyl) (MOE); k = constrained ethyl (cEt); [5mC] = 5-methylcytosine; d = 2'-deoxy (DNA); m = 2'-O-methyl

System: Yap1 mRNA
Experiment: Antisense inhibition of human Yap1 in SNU-449 cells by modified oligonucleotides, single dose (Example 5, RTS36584)
Format: cell-based
How it was run: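 SNU-449 cells (10,000/well) took up 2,000 nM oligonucleotide by free uptake for about 48 h. Yap1 mRNA was measured by qRT-PCR with primer probe set RTS36584 and normalised to RIBOGREEN total RNA. Values are % of untreated control; asterisked oligos target the amplicon region.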

[1] = Table 39, SNU-449 cells, 10,000 cells per well, free uptake, 2,000 nM oligonucleotide, approx. 48 hours, RTS36584, normalized to RIBOGREEN, Yap1 mRNA relative to untreated control
[2] = Table 41, SNU-449 cells, 10,000 cells per well, free uptake, 2,000 nM modified oligonucleotide, approximately 48 hours, RTS36584, normalized to RIBOGREEN, Yap1 mRNA relative to untreated control cells
[3] = Yap1 mRNA, percent of untreated control, modified oligonucleotides targeting SEQ ID NO: 1 and 2, Table 47
[4] = Table 40 (separate experiment), SNU-449 cells, 10,000 cells per well, free uptake, 2,000 nM oligonucleotide, approx. 48 hours, RTS36584, normalized to RIBOGREEN, Yap1 mRNA relative to untreated control
[5] = Table 52, Yap1 mRNA, modified oligonucleotides targeting SEQ ID NO: 1 and 2
[6] = Table 49, Yap1 mRNA level relative to untreated control, modified oligonucleotides targeting SEQ ID NO.: 1 and 2
[7] = Table 51, Yap1 mRNA remaining as percent of untreated control (UT), SNU-449 cells, single dose
[8] = Table 45, Yap1 mRNA as percent of untreated control, SNU-449 cells, single dose
[9] = Table 43 experiment, SNU-449 cells, 10,000 cells per well, free uptake, 2,000 nM, approximately 48 hours, RTS36584, Yap1 mRNA normalized to RIBOGREEN, relative to untreated control cells
[10] = Table 50, Yap1 mRNA remaining as percent of untreated control (UT), SNU-449 cells, single dose
[11] = Table 44 experiment, SNU-449 cells, 10,000 cells per well, free uptake, 2,000 nM, approximately 48 hours, RTS36584, Yap1 mRNA normalized to RIBOGREEN, relative to untreated control cells
[12] = Table 48, Yap1 mRNA level relative to untreated control, modified oligonucleotides targeting SEQ ID NO.: 1 and 2
[13] = Table 42 (separate experiment), SNU-449 cells, 10,000 cells per well, free uptake, 2,000 nM modified oligonucleotide, approximately 48 hours, RTS36584, normalized to RIBOGREEN, Yap1 mRNA relative to untreated control cells

## 1198400 (kA*dA*dG*d[5mC]*dA*d[5mC]*dT*dT*dT*dT*dA*k[5mC]*eA*kT*eT*kA; antisense) [Compound 1198400]
[1]
  YAP1 (% UTC): 62 % UTC

## 1198787 (antisense kA*eG*kT*dG*dT*dA*dT*dG*dT*d[5mC]*dA*dG*eA*eA*kG*kA) [Compound 1198787]
[2]
  YAP1 (% UTC): 9 % UTC

## 1076186 (kA*kT*kT*dT*dA*dG*dG*dA*dT*dG*d[5mC]*dA*dT*kG*kG*kT) [Compound 1076186]
[3]
  YAP1 (% UT): 31 % UT

## 1198438 (kT*dG*dT*dA*dT*dG*dT*d[5mC]*dA*dG*dA*kA*eG*kA*eG*kT; antisense) [Compound 1198438]
[4]
  YAP1 (% UTC): 7 % UTC

## 1200857 (kA*kG*kT*dG*dT*mA*dT*dG*dT*d[5mC]*dA*dG*dA*kA*kG*kA; antisense) [Compound 1200857]
[5]
  YAP1 (% UT): 4 % UT

## 1198628 (TGTCTCATGCCTTATA; modified gapmer, chemistry not fully specified) [Compound 1198628]
[2]
  YAP1 (% UTC): 27 % UTC

## 1198366 (kA*k[5mC]*kT*dA*dA*dG*dT*dA*dA*dG*dG*dT*kT*eT*k[5mC]*e[5mC]; antisense) [Compound 1198366]
[6]
  YAP1 (% UT): 45 % UT

## 1197265 (kT*kA*kA*dT*mA*dT*dT*dG*d[5mC]*dA*dA*dT*d[5mC]*kT*kG*kT) [Compound 1197265]
[7]
  YAP1 (% UT): 103 % UT

## 1200840 (k[5mC]*kT*kT*dA*dT*mA*dT*dG*dG*dT*dT*dT*dT*kG*kT*kG; antisense) [Compound 1200840]
[5]
  YAP1 (% UT): 48 % UT

## 1198931 (kA*kG*dG*dA*dT*dG*d[5mC]*dA*dT*dG*dG*kT*dT*kT*dT*kT; antisense) [Compound 1198931]
[8]
  YAP1 (% UTC): 47 % UTC

## 1198252 (k[5mC]*kT*d[5mC]*dT*dT*dA*dT*dA*dT*dG*dG*eT*eT*eT*kT*kG; antisense) [Compound 1198252]
[9]
  YAP1 (% UTC): 26 % UTC

## 1198561 (antisense kG*kG*kT*dA*dT*dA*dA*d[5mC]*dT*dG*dG*dG*k[5mC]*kA*kA*eA) [Compound 1198561]
[10]
  YAP1 (% UT): 29 % UT

## 1197295 (G_{ks}^{m}C_{ks}T_{ks}T_{ds}U_{ys}G_{ds}G_{ds}A_{ds}A_{ds}G_{ds}A_{ds}T_{ds}C_{ds}T_{ks}G_{ks}A_{k}; as printed in the source, key not given here) [Compound 1197295]
[7]
  YAP1 (% UT): 24 % UT

## 1198219 (kG*kA*dG*dG*dT*dA*dT*dA*dA*d[5mC]*dT*eG*eG*eG*k[5mC]*kA; antisense) [Compound 1198219]
[9]
  YAP1 (% UTC): 22 % UTC

## 1198632 (kG*kA*dA*dA*dT*dT*dG*dT*d[5mC]*dT*d[5mC]*dA*kT*eG*k[5mC]*e[5mC]; antisense) [Compound 1198632]
[2]
  YAP1 (% UTC): 21 % UTC

## 1198517 (kA*kA*dT*dA*dT*dT*dG*d[5mC]*dA*dA*dT*e[5mC]*kT*eG*kT*e[5mC]; antisense) [Compound 1198517]
[11]
  YAP1 (% UTC): 36 % UTC

## 1197297 (GTGCUTTGGAAGATCT; cEt/MOE gapmer, phosphorothioate, 5-methylcytosine, chemistry not fully specified) [Compound 1197297]
[7]
  YAP1 (% UT): 25 % UT

## 1198785 (antisense kT*eT*kT*dA*dT*dG*dT*dA*dA*dT*dA*dT*eT*eG*k[5mC]*kA) [Compound 1198785]
[4]
  YAP1 (% UTC): 86 % UTC

## 1198783 (antisense kA*eT*kG*dT*dA*dA*dT*dA*dT*dT*dG*d[5mC]*eA*eA*kT*k[5mC]) [Compound 1198783]
[4]
  YAP1 (% UTC): 78 % UTC

## 1198264 (kT*kA*dT*dG*dT*dA*dA*dT*dA*dT*dT*eG*e[5mC]*eA*kA*kT; antisense) [Compound 1198264]
[9]
  YAP1 (% UTC): 73 % UTC

## 1198295 (kT*kA*kG*dA*dG*dT*dA*dT*dG*dT*dG*dG*k[5mC]*eA*kA*eT; antisense) [Compound 1198295]
[12]
  YAP1 (% UT): 15 % UT

## 1198650 (kA*kA*d[5mC]*dA*d[5mC]*dT*dG*dA*dG*dG*dT*dA*kT*eA*kA*e[5mC]) [Compound 1198650]
[13]
  YAP1 (% UTC): 88 % UTC

## 1198434 (kT*dG*dT*dA*dA*dT*dA*dT*dT*dG*d[5mC]*kA*eA*kT*e[5mC]*kT) [Compound 1198434]
[1]
  YAP1 (% UTC): 78 % UTC

## 1200853 (kA*kT*kG*dT*dA*mA*dT*dA*dT*dT*dG*d[5mC]*dA*kA*kT*k[5mC]; antisense) [Compound 1200853]
[5]
  YAP1 (% UT): 69 % UT

## 1198627 (kT*kT*kA*dG*dA*d[5mC]*dT*dA*dA*dG*dT*dA*kA*kG*kG*eT; antisense) [Compound 1198627]
[10]
  YAP1 (% UT): 39 % UT

## 1198201 (kA*kA*dA*dT*dT*dG*dT*d[5mC]*dT*d[5mC]*dA*eT*eG*e[5mC]*k[5mC]*kT; antisense) [Compound 1198201]
[13]
  YAP1 (% UTC): 34 % UTC

## 1198529 (kT*kT*dA*dA*dA*dG*dT*dG*dT*dA*dT*eG*kT*e[5mC]*kA*eG; antisense) [Compound 1198529]
[11]
  YAP1 (% UTC): 17 % UTC

## 1198775 (k[5mC]*eA*kA*d[5mC]*dT*d[5mC]*dT*dT*dA*dT*dA*dT*eG*eG*kT*kT; antisense) [Compound 1198775]
[2]
  YAP1 (% UTC): 113 % UTC

## 1198815 (antisense kT*kA*dG*dA*dG*dT*dA*dT*dG*dT*dG*kG*e[5mC]*kA*eA*kT) [Compound 1198815]
Table 46, Yap1 mRNA as percent of untreated control, SNU-449 cells, single dose
  YAP1 (% UT): 24 % UT

## 1198544 (antisense kA*kA*kT*dT*dG*dT*d[5mC]*dT*d[5mC]*dA*dT*dG*k[5mC]*k[5mC]*kT*eT) [Compound 1198544]
[6]
  YAP1 (% UT): 21 % UT

## 1198786 (antisense kT*eG*kT*dA*dT*dG*dT*d[5mC]*dA*dG*dA*dA*eG*eA*kG*kT) [Compound 1198786]
[2]
  YAP1 (% UTC): 16 % UTC

## 1198598 (antisense kA*kA*k[5mC]*dT*d[5mC]*dT*dT*dA*dT*dA*dT*dG*kG*kT*kT*eT) [Compound 1198598]
[10]
  YAP1 (% UT): 76 % UT

## 1198548 (antisense kT*kG*kG*dA*dA*dA*dT*dT*dG*dT*d[5mC]*dT*k[5mC]*kA*kT*eG) [Compound 1198548]
[6]
  YAP1 (% UT): 26 % UT

## 1197272 (^{m}C_{ks}T_{ks}T_{ks}T_{ds}A_{ys}A_{ds}A_{ds}G_{ds}T_{ds}G_{ds}T_{ds}A_{ds}T_{ds}G_{ks}T_{ks}^{m}C_{k}; as printed in the source, key not given here) [Compound 1197272]
[7]
  YAP1 (% UT): 32 % UT

## 1200842 (k[5mC]*kT*k[5mC]*dT*dT*mA*dT*dA*dT*dG*dG*dT*dT*kT*kT*kG; antisense) [Compound 1200842]
[5]
  YAP1 (% UT): 168 % UT

## 1198555 (antisense kA*kT*kT*dA*dG*dA*dG*dT*dA*dT*dG*dT*kG*kG*k[5mC]*eA) [Compound 1198555]
[6]
  YAP1 (% UT): 11 % UT

## 1198740 (AACACTGAGGTATAAC; all C 5-methyl, sugars by position and backbone not given here; position 2 notation garbled, mixed cEt/MOE/deoxy gapmer) [Compound 1198740]
[2]
  YAP1 (% UTC): 39 % UTC

## 1198230 (kG*kG*dA*dA*dG*dA*dT*d[5mC]*dT*dG*dA*eA*eA*e[5mC]*kT*k[5mC]) [Compound 1198230]
[13]
  YAP1 (% UTC): 81 % UTC

## 1198540 (antisense kA*kG*dA*d[5mC]*dT*dA*dA*dG*dT*dA*dA*eG*kG*eT*kT*eT) [Compound 1198540]
[11]
  YAP1 (% UTC): 51 % UTC

## 1197178 (antisense kA*kA*kT*dT*dG*dT*d[5mC]*dT*d[5mC]*dA*dT*dG*d[5mC]*k[5mC]*kT*kT) [Compound 1197178]
[3]
  YAP1 (% UT): 12 % UT

## 1198291 (kA*kT*kG*dG*dA*dA*dA*dT*dT*dG*dT*d[5mC]*kT*e[5mC]*kA*eT; antisense) [Compound 1198291]
[12]
  YAP1 (% UT): 58 % UT

## 1198968 (kA*kG*dT*dA*dA*dG*dG*dT*dT*dT*d[5mC]*k[5mC]*d[5mC]*kA*dG*kA; antisense) [Compound 1198968]
[8]
  YAP1 (% UTC): 57 % UTC

## 1198926 (kG*k[5mC]*dT*dT*dT*dG*dG*dA*dA*dG*dA*kT*d[5mC]*kT*dG*kA; antisense) [Compound 1198926]
[8]
  YAP1 (% UTC): 45 % UTC

## 1197252 (antisense k[5mC]*kT*kT*dT*mG*dG*dA*dA*dG*dA*dT*d[5mC]*dT*kG*kA*kA) [Compound 1197252]
[7]
  YAP1 (% UT): 53 % UT

## 1198956 (kT*kA*dT*dG*dT*dA*dA*dT*dA*dT*dT*kG*d[5mC]*kA*dA*kT; antisense) [Compound 1198956]
[8]
  YAP1 (% UTC): 76 % UTC

## 1198973 (kG*kA*d[5mC]*dT*dA*dA*dG*dT*dA*dA*dG*kG*dT*kT*dT*k[5mC]; antisense) [Compound 1198973]
[8]
  YAP1 (% UTC): 53 % UTC

## 1200873 (kT*kT*kA*dG*dA*mC*dT*dA*dA*dG*dT*dA*dA*kG*kG*kT; antisense) [Compound 1200873]
[5]
  YAP1 (% UT): 55 % UT
